Laboratory results taken from patent US4871716A, “Magnetically responsive, hydrophilic microspheres for incorporation of therapeutic substances and methods of preparation thereof” (priority 1986, dated 1989).

How the values were obtained:
[1] = Toxicity in CD-1 mice by i.p. injection; type: in vivo, CD-1 white female mice; conditions: mouse, in vivo, ip, 0.6 mg; 600 μg free AD; read-out: animals killed
Description: (§1) CD-1 white female mice, 5-7 weeks of age, weighing 30-33 g were injected by the intraperitoneal (i.p.) route with AD at concentrations of 0.6 mg and 1.5 mg dissolved in 0.5 ml of sterile saline. A second group of animals were injected with AD-PGA(15%)-HSA/MS-Q with 0.6, 1.5, and 2.5 mg of bound AD. For each concentration of the free and bound drug, 5 mice were used. PGA(15%)-HSA/MS-Q without AD was used for a control group and injected in equivalent weight amounts. Animals were then observed over a two-month period and fatalities were recorded for each group and tabulated.

CD-1 mice = experiment: Toxicity in CD-1 mice by i.p. injection; type: in vivo, CD-1 white female mice
Description: as §1

COc1cccc2c1C(=O)c1c(O)c3c(c(O)c1C2=O)C[C@@](O)(C(=O)CO)C[C@@H]3O[C@H]1C[C@H](N)[C@H](O)[C@H](C)O1 [AD, Adriamycin]
mortality at 1460 h [1]: > 80% | Survival from Time of Administration (CD-1 mice; AD 0.6 mg i.p. (free or bound), 7 days): 5/5 | Survival from Time of Administration (CD-1 mice; AD 0.6 mg i.p. (free or bound), 14 days): 1/5 | Survival from Time of Administration (CD-1 mice; AD 0.6 mg i.p. (free or bound), 21 days): 1/5 | Survival from Time of Administration (CD-1 mice; AD 0.6 mg i.p. (free or bound), 28 days): 1/5 | Survival from Time of Administration (CD-1 mice; AD 0.6 mg i.p. (free or bound), 35 days): 1/5 | Survival from Time of Administration (CD-1 mice; AD 1.5 mg i.p. (free or bound), 7 days): 5/5 | Survival from Time of Administration (CD-1 mice; AD 1.5 mg i.p. (free or bound), 14 days): 0/5 | ulcer development at site of injection (CD-1 mice; i.p.): All animals treated with free AD developed these ulcers
